Measured values published in ChEMBL document CHEMBL4507301 (2021).

Assays:
Settings in all cases: Compound concentration 1000.0 nM
[1] = target: Mitogen-activated protein kinase kinase kinase 12 (Homo sapiens) (UniProt Q12852)
[2] = target: Serine/threonine-protein kinase PRP4 homolog (Homo sapiens) (UniProt Q13523)
[3] = target: RAC-alpha serine/threonine-protein kinase (Homo sapiens) (UniProt P31749)
[4] = target: STE20/SPS1-related proline-alanine-rich protein kinase (Homo sapiens) (UniProt Q9UEW8)
[5] = target: Serine/threonine-protein kinase 38 (Homo sapiens) (UniProt Q15208)
[6] = target: Ribosomal protein S6 kinase alpha-5 (Homo sapiens) (UniProt O75582)
[7] = target: Serine/threonine-protein kinase Sgk1 (Homo sapiens) (UniProt O00141)
[8] = target: Mast/stem cell growth factor receptor Kit (Homo sapiens) (UniProt P10721)
[9] = target: Cyclin-dependent kinase 11A (Homo sapiens) (UniProt Q9UQ88)
Chain of Cyclin-dependent kinase 11A (Homo sapiens) (Q9UQ88 whole entry): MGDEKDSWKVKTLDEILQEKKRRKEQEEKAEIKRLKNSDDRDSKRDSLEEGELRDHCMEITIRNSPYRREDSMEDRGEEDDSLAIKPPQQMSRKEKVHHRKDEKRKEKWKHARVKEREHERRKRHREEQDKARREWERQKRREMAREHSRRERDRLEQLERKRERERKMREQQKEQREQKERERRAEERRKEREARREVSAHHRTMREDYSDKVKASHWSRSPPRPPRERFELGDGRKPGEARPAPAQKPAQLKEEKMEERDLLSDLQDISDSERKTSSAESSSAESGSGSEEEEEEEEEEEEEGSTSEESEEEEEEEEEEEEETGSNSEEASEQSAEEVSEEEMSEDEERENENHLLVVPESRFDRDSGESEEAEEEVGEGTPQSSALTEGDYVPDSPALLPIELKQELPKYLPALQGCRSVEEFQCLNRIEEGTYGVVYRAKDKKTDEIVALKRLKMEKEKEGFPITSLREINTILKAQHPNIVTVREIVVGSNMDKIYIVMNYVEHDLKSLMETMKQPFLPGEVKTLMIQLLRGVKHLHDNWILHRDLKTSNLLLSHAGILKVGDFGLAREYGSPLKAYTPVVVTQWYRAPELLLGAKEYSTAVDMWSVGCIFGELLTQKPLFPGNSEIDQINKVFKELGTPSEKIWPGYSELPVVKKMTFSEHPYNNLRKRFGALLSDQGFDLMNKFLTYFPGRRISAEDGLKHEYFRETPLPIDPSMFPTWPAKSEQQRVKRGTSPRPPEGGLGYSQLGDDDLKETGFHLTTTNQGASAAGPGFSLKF

[10] = target: Serine/threonine-protein kinase 17A (Homo sapiens) (UniProt Q9UEE5)
[11] = tested on: ALK tyrosine kinase receptor (Homo sapiens), Q9UM73 [C1156Y]
[12] = target: Megakaryocyte-associated tyrosine-protein kinase (Homo sapiens) (UniProt P42679)
[13] = target: AP2-associated protein kinase 1 (Homo sapiens) (UniProt Q2M2I8)
[14] = target: Tyrosine-protein kinase JAK2 (Homo sapiens) (UniProt O60674)
[15] = target: Serine/threonine-protein kinase SIK3 (Homo sapiens) (UniProt Q9Y2K2)
[16] = target: Serine/threonine-protein kinase ULK2 (Homo sapiens) (UniProt Q8IYT8)
[17] = target: Serine/threonine-protein kinase WNK3 (Homo sapiens) (UniProt Q9BYP7)
[18] = target: Activin receptor type-1-like (Homo sapiens) (UniProt P37023)
Chain of Activin receptor type-1-like (Homo sapiens) (P37023 whole entry, canonical isoform): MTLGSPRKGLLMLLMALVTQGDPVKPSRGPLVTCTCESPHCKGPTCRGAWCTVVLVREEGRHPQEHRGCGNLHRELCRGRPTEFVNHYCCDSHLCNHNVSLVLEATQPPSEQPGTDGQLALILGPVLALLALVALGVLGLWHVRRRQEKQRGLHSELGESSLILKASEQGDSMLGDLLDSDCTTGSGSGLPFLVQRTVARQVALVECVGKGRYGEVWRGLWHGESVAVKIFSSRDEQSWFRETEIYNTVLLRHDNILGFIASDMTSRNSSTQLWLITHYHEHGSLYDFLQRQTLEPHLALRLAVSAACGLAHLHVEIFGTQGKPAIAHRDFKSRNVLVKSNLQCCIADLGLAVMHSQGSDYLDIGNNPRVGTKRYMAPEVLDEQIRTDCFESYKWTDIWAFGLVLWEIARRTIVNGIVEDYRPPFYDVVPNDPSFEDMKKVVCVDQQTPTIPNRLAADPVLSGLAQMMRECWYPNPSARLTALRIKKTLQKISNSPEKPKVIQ

[19] = tested on: Phosphatidylinositol 4,5-bisphosphate 3-kinase catalytic subunit alpha isoform (Homo sapiens), P42336 [H1047Y]
[20] = target: Tyrosine-protein kinase FRK (Homo sapiens) (UniProt P42685)
[21] = target: Cyclin-dependent kinase-like 1 (Homo sapiens) (UniProt Q00532)
[22] = target: Phosphorylase b kinase regulatory subunit alpha, liver isoform (Homo sapiens) (UniProt P46019)
[23] = target: Ephrin type-B receptor 6 (Homo sapiens) (UniProt O15197)
[24] = target: BMP-2-inducible protein kinase (Homo sapiens) (UniProt Q9NSY1)
Chain of BMP-2-inducible protein kinase (Homo sapiens) (Q9NSY1 whole entry, looked up): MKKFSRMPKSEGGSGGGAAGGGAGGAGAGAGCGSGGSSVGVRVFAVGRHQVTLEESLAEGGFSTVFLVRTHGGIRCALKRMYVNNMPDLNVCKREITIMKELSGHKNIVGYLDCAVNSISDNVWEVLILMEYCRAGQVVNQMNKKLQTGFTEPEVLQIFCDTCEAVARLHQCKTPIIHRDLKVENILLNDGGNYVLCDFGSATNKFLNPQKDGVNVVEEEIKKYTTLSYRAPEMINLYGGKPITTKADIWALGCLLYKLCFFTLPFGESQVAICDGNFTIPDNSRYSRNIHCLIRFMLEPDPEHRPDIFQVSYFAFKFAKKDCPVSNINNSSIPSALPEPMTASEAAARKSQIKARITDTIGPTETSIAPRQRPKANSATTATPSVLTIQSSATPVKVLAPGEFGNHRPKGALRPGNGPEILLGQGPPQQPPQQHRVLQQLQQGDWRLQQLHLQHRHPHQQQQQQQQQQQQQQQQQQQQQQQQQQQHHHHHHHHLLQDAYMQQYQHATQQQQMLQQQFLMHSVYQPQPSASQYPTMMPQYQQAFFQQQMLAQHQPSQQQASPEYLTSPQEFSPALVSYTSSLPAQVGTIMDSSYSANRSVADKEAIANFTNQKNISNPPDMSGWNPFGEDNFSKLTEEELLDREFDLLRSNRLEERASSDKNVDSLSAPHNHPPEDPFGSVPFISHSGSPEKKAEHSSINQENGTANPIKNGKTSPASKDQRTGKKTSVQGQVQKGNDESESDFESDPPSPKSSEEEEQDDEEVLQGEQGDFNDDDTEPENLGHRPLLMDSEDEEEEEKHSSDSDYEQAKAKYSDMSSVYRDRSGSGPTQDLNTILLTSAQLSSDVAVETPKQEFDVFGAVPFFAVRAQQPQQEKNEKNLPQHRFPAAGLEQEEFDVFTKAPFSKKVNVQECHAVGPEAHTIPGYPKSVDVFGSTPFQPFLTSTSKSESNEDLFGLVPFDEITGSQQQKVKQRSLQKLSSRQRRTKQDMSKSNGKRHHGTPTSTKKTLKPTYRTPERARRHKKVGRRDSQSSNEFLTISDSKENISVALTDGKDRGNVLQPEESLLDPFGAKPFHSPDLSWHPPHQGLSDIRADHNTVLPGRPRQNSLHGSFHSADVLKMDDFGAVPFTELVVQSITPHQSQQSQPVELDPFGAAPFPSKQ

[25] = target: Serine/threonine-protein kinase WNK1 (Homo sapiens) (UniProt Q9H4A3)
[26] = target: Myosin light chain kinase, smooth muscle (Homo sapiens) (UniProt Q15746)
[27] = target: Rhodopsin kinase GRK7 (Homo sapiens) (UniProt Q8WTQ7)
[28] = target: Mitogen-activated protein kinase kinase kinase 7 (Homo sapiens) (UniProt O43318)
Chain of Mitogen-activated protein kinase kinase kinase 7 (Homo sapiens) (O43318 whole entry): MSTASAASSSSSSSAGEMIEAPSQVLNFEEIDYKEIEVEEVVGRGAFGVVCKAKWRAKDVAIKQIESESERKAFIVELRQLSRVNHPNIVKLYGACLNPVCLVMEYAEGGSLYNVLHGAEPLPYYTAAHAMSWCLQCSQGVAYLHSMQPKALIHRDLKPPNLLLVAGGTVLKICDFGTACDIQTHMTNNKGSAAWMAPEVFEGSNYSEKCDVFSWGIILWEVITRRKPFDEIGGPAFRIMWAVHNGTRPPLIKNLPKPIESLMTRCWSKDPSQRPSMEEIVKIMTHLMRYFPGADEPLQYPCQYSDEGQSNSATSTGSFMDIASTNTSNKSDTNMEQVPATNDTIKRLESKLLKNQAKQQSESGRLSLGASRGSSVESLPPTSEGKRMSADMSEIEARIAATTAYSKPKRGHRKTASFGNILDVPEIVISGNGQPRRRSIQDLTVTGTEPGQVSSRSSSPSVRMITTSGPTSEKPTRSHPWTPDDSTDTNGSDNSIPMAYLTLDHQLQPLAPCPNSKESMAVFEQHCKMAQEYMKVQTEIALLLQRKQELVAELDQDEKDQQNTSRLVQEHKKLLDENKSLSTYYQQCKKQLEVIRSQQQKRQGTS

[29] = target: Wee1-like protein kinase (Homo sapiens) (UniProt P30291)
[30] = tested on: Epidermal growth factor receptor (Homo sapiens), P00533 [UNDEFINED MUTATION]
[31] = target: Homeodomain-interacting protein kinase 2 (Homo sapiens) (UniProt Q9H2X6)
Chain of Homeodomain-interacting protein kinase 2 (Homo sapiens) (Q9H2X6 whole entry, looked up, canonical isoform): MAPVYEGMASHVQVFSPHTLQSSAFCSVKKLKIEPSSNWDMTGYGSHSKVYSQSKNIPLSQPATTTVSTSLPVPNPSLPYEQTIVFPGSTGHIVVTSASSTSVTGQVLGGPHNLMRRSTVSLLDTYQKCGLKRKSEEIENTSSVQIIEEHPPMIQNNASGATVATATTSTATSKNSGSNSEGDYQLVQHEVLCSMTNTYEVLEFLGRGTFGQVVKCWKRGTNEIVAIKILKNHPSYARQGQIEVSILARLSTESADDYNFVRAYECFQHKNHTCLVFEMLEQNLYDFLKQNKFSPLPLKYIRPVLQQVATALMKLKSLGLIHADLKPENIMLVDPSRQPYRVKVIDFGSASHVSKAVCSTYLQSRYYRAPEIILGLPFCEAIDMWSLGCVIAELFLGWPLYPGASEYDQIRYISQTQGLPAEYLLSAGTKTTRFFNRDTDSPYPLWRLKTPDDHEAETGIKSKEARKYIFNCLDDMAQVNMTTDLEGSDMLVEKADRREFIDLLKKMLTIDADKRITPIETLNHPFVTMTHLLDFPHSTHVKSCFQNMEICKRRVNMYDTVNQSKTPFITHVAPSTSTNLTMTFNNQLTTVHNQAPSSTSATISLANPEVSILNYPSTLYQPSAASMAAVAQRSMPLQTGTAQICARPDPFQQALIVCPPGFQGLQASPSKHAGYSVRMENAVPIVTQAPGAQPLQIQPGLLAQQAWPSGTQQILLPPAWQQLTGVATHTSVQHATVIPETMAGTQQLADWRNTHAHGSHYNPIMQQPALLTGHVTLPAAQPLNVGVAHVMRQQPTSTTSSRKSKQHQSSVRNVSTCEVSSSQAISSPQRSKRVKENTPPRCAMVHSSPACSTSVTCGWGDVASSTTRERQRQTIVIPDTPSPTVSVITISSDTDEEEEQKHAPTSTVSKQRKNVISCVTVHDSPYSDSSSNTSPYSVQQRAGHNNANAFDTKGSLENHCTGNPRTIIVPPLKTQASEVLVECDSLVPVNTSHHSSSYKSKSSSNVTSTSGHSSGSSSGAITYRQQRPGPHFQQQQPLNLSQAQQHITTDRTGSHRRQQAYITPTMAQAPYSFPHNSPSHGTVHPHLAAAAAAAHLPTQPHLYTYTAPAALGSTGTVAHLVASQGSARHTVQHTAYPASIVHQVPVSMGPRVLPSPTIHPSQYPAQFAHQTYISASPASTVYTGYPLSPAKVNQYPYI

[32] = tested on: Phosphatidylinositol 4,5-bisphosphate 3-kinase catalytic subunit alpha isoform (Homo sapiens), P42336 [Q546K]
[33] = target: Proto-oncogene tyrosine-protein kinase Src (Homo sapiens) (UniProt P12931)
[34] = target: Dual specificity testis-specific protein kinase 1 (Homo sapiens) (UniProt Q15569)
[35] = target: Serine/threonine-protein kinase 3 (Homo sapiens) (UniProt Q13188)
Chain of Serine/threonine-protein kinase 3 (Homo sapiens) (Q13188 whole entry): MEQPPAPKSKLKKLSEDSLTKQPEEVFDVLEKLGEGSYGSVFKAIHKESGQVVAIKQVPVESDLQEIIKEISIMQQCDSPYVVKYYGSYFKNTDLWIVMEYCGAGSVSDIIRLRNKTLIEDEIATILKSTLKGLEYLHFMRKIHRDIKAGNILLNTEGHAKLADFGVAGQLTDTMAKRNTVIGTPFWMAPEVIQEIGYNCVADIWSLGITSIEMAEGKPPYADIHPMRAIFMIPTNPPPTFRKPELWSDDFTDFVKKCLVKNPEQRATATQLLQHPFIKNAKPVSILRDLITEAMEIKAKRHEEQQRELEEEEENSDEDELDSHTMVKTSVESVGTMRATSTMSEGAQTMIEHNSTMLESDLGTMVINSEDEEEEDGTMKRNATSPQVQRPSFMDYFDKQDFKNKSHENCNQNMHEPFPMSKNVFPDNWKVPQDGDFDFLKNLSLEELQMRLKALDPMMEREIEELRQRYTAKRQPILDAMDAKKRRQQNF

[36] = target: Mitogen-activated protein kinase kinase kinase 19 (Homo sapiens) (UniProt Q56UN5)
[37] = target: Aurora kinase C (Homo sapiens) (UniProt Q9UQB9)
Chain of Aurora kinase C (Homo sapiens) (Q9UQB9 whole entry): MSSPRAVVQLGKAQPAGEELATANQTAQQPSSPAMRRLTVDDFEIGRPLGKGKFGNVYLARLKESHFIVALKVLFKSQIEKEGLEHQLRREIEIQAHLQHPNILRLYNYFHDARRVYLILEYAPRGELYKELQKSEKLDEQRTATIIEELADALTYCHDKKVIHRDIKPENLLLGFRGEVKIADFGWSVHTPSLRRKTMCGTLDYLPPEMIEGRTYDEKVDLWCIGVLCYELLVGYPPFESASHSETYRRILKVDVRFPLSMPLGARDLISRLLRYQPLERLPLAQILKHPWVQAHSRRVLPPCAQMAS

[38] = target: Interferon-induced, double-stranded RNA-activated protein kinase (Homo sapiens) (UniProt P19525)
[39] = target: LIM domain kinase 1 (Homo sapiens) (UniProt P53667)
[40] = target: Tyrosine-protein kinase Fer (Homo sapiens) (UniProt P16591)
[41] = target: Serine/threonine-protein kinase MARK2 (Homo sapiens) (UniProt Q7KZI7)
[42] = target: Serine/threonine-protein kinase 26 (Homo sapiens) (UniProt Q9P289)
[43] = target: Phosphatidylinositol 4-phosphate 5-kinase type-1 gamma (Homo sapiens) (UniProt O60331)
[44] = target: TGF-beta receptor type-2 (Homo sapiens) (UniProt P37173)
[45] = target: Ephrin type-B receptor 4 (Homo sapiens) (UniProt P54760)

Measured: residual activity

C[C@@H](c1cccc(C#N)c1)n1cc(Cl)cc(C(N)=O)c1=N [(S)-9s]
inactive: [1] 100% | [2] 100% | [3] 100% | [4] 100% | [5] 84% | [6] 93% | [7] 100% | [8] 93% | [9] 90% | [10] 89% | [11] 98% | [12] 100% | [13] 100% | [14] 100% | [15] 94% | [16] 89% | [17] 82% | [18] 80% | [19] 100% | [20] 100% | [21] 100% | [22] 100% | [23] 100% | [24] 93% | [25] 97% | [26] 88% | [27] 82% | [28] 100% | [29] 100% | [30] 100% | [31] 100% | [32] 100% | [33] 99% | [34] 74% | [35] 96% | [36] 94% | [37] 96% | [38] 100% | [39] 100% | [40] 100% | [41] 100% | [42] 68% | [43] 100% | [44] 100% | [45] 96%

C[C@H](c1cccc(C#N)c1)n1cc(Cl)cc(C(N)=O)c1=N [(R)-9s]
inactive: [1] 100% | [2] 93% | [3] 100% | [4] 100% | [5] 87% | [6] 92% | [7] 77% | [8] 87% | [9] 100% | [10] 85% | [11] 89% | [12] 100% | [13] 100% | [14] 100% | [15] 100% | [16] 71% | [17] 80% | [18] 93% | [19] 95% | [20] 98% | [21] 98% | [22] 100% | [23] 87% | [24] 100% | [25] 89% | [26] 100% | [27] 85% | [28] 77% | [29] 100% | [30] 100% | [31] 100% | [32] 100% | [33] 88% | [34] 86% | [35] 84% | [36] 76% | [37] 91% | [38] 100% | [39] 88% | [40] 100% | [41] 100% | [42] 88% | [43] 99% | [44] 100% | [45] 89%
